# Test system: YAP/TAZ-TEAD transcription
# Assay: Reporter gene assay for measuring the inhibition of YAP/TAZ-TEAD transcription (TEAD-responsive element luciferase reporter in Hek293T cells)
# Format: cell-based
# Settings: 24 hours incubation
# Summary of the method: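 HEK293T cells transiently transfected with a TEAD-responsive luciferase reporter were exposed to compounds for 24 h at 37° C/5% CO2, then luminescence was read. Percent inhibition normalised to vehicle (0%) and positive-control inhibitor (100%); IC50 derived.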
row,IC50 [nM],Structure (SMILES)
1,< 1000,CC(=O)N1CC(=O)N2c3ccccc3N(c3ccc(C(F)(F)F)cc3)CC2C1 (centres unmarked) [compound 79]
2,< 1000,"O=C(O)C1CCN2c3ncccc3N(c3ccc(C(F)(F)F)cc3)CC2C1 [96A-En2, (6aS,8S)- or (6aR,8S)- or (6aR,8R)- or (6aS,8R)-5-(4-(trifluoromethyl)phenyl)-6,6a,7,8,9,10-hexahydro-5H-dipyrido[1,2-a:3′,2′-e]pyrazine-8-carboxylic acid]"
3,< 1000,"CC(=O)NCC1CN(c2ccc(C(F)(F)F)cc2)c2ccc(C3CC3)nc2O1 (centres unmarked) [compound 81, N-((6-cyclopropyl-1-(4-(trifluoromethyl)phenyl)-2,3-dihydro-1H-pyrido[2,3-b][1,4]oxazin-3-yl)methyl)acetamide]"
4,< 1000,"COc1ccc2c(n1)OC(CNC(C)=O)CN2c1ccc(C(F)(F)F)cc1 (centres unmarked) [compound 73, N-((6-methoxy-1-(4-(trifluoromethyl)phenyl)-2,3-dihydro-1H-pyrido[2,3-b][1,4]oxazin-3-yl)methyl)acetamide]"
5,< 1000,"CC(=O)N1CCN2c3ncccc3N(c3ccc(C(F)(F)F)cc3)CC2C1 (single isomer, unassigned) [29-En2, (R)- or (S)-1-(5-(4-(trifluoromethyl)phenyl)-5,6,6a,7,9,10-hexahydro-8H-pyrazino[1,2-a]pyrido[3,2-e]pyrazin-8-yl)ethan-1-one]"
6,> 10000,"CC(=O)NCC1CN(c2ccc(C(F)(F)F)cc2)c2cc(Cl)cnc2O1 (single isomer, unassigned) [75-En1, (R)- or (S)-N-((7-chloro-1-(4-(trifluoromethyl)phenyl)-2,3-dihydro-1H-pyrido[2,3-b][1,4]oxazin-3-yl)methyl)acetamide]"

# Continued, molecule first:
row,Structure (SMILES),IC50 [nM]
1,"CC(=O)N1CCN2c3ncccc3N(c3ccc(C(F)(F)F)cn3)CC2C1 (centres unmarked) [53-En2, 1-(5-(5-(trifluoromethyl)pyridin-2-yl)-5,6,6a,7,9,10-hexahydro-8H-pyrazino[1,2-a]pyrido[3,2-e]pyrazin-8-yl)ethan-1-one]",> 10000
2,"CNS(=O)(=O)N1CCN2c3ncccc3N(c3ccc(C(F)(F)F)cc3)CC2C1 (single isomer, unassigned) [45-En1, (R)- or (S)-N-methyl-5-(4-(trifluoromethyl)phenyl)-5,6,6a,7,9,10-hexahydro-8H-pyrazino[1,2-a]pyrido[3,2-e]pyrazine-8-sulfonamide]",< 1000
3,"C=CC(=O)N1CC2CN(c3ccc(C(F)(F)F)cc3)c3ccccc3N2CC1C(=O)O (stereo not drawn) [compound 89, (cis)- or (trans)-3-acryloyl-6-(4-(trifluoromethyl)phenyl)-2,3,4,4a,5,6-hexahydro-1H-pyrazino[1,2-a]quinoxaline-2-carboxylic acid]",< 1000
4,"CC(=O)N1CCN2c3nccnc3N(c3ccc(C(F)(F)F)cc3)CC2C1 (single isomer, unassigned) [40-En2, (R)- or (S)-1-(5-(4-(trifluoromethyl)phenyl)-5,6,6a,7,9,10-hexahydro-8H-dipyrazino[1,2-a:2′,3′-e]pyrazin-8-yl)ethan-1-one]",1000 to 10000
5,"FC(F)(F)c1ccc(N2CC3CC(c4nnn[nH]4)CCN3c3ccccc32)cc1 (single isomer, unassigned) [121-D2, 8-(1H-tetrazol-5-yl)-5-(4-(trifluoromethyl)phenyl)-6,6a,7,8,9,10-hexahydro-5H-pyrido[1,2-a]quinoxaline]",< 1000

# Same assay, conditions: Homo sapiens, HEK-293T, 24 h, 24 hours incubation
row,IC50 [nM],Structure (SMILES)
1,< 1000,"O=C(O)C1CCN2c3ncccc3N(c3ccc(C(F)(F)F)cc3)CC2C1 [96A-En1, (6aS,8S)- or (6aR,8S)- or (6aR,8R)- or (6aS,8R)-5-(4-(trifluoromethyl)phenyl)-6,6a,7,8,9,10-hexahydro-5H-dipyrido[1,2-a:3′,2′-e]pyrazine-8-carboxylic acid]"
2,1000 to 10000,"O=C1CN2c3ccccc3N(c3ccc(C(F)(F)F)cc3)CC2CN1 (centres unmarked) [compound 10, 6-(4-(trifluoromethyl)phenyl)-4,4a,5,6-tetrahydro-1H-pyrazino[1,2-a]quinoxalin-2(3H)-one]"
3,< 1000,"CC(=O)N[C@@H]1C[C@@H]2CN(c3ccc(C(F)(F)F)cc3)c3cccnc3N2C1 [70-D1, N-((6aR,8R)-5-(4-(trifluoromethyl)phenyl)-5,6,6a,7,8,9-hexahydropyrido[3,2-e]pyrrolo[1,2-a]pyrazin-8-yl)acetamide]"
4,< 1000,"CNC(=O)O[C@H]1C[C@@H]2CN(c3ccc(C(F)(F)F)cc3)c3cccnc3N2C1 [55-En1, (6aR,8S)-5-(4-(trifluoromethyl)phenyl)-5,6,6a,7,8,9-hexahydropyrido[3,2-e]pyrrolo[1,2-a]pyrazin-8-yl methylcarbamate]"
5,1000 to 10000,"CC(=O)NCC1CN(c2ccc(C(F)(F)F)cc2)c2ccccc2N1CC#N (centres unmarked) [compound 4, N-((1-(cyanomethyl)-4-(4-(trifluoromethyl)phenyl)-1,2,3,4-tetrahydroquinoxalin-2-yl)methyl)acetamide]"
6,< 1000,"C=CC(=O)NCC1CN(c2ccc(C(F)(F)F)cc2)c2cccnc2O1 (centres unmarked) [compound 48, N-((1-(4-(trifluoromethyl)phenyl)-2,3-dihydro-1H-pyrido[2,3-b][1,4]oxazin-3-yl)methyl)acrylamide]"
7,> 10000,"CC(=O)NCC1CN(c2ccc(C(F)(F)F)cc2)c2ccccc2N1CCCO (centres unmarked) [compound 6, N-((1-(3-hydroxypropyl)-4-(4-(trifluoromethyl)phenyl)-1,2,3,4-tetrahydroquinoxalin-2-yl)methyl)acetamide]"
8,> 10000,"CC(=O)N1CC2CN(c3ccc(C(F)(F)F)cc3)c3cccnc3N2C1=O (centres unmarked) [compound 59, 8-acetyl-5-(4-(trifluoromethyl)phenyl)-6,6a,7,8-tetrahydroimidazo[1,5-a]pyrido[3,2-e]pyrazin-9(5H)-one]"
9,< 1000,"O=C(C1CC1)N1CCN2c3ncccc3N(c3ccc(C(F)(F)F)cc3)CC2C1 (centres unmarked) [compound 46, Cyclopropyl(5-(4-(trifluoromethyl)phenyl)-5,6,6a,7,9,10-hexahydro-8H-pyrazino[1,2-a]pyrido[3,2-e]pyrazin-8-yl)methanone]"
10,1000 to 10000,"CC(=O)NCC1CN(c2ccc(C(F)(F)F)cc2)c2ccc(OC(F)F)nc2O1 (centres unmarked) [compound 108, N-((6-(difluoromethoxy)-1-(4-(trifluoromethyl)phenyl)-2,3-dihydro-1H-pyrido[2,3-b][1,4]oxazin-3-yl)methyl)acetamide]"
11,< 1000,"Cc1ccc2c(n1)N1CCC(C(=O)O)CC1CN2c1ccc(C(F)(F)F)cc1 [101-D1, (6aS,8S)— or (6aR,8S)— or (6aR,8R)— or (6aS,8R)-2-methyl-5-(4-(trifluoromethyl)phenyl)-6,6a,7,8,9,10-hexahydro-5H-dipyrido[1,2-a:3′,2′-e]pyrazine-8-carboxylic acid]"
12,< 1000,"CC(=O)NCC1CN(c2ccc(C(F)(F)F)cc2)c2cccnc2O1 (centres unmarked) [compound 49, N-((1-(4-(trifluoromethyl)phenyl)-2,3-dihydro-1H-pyrido[2,3-b][1,4]oxazin-3-yl)methyl)acetamide]"
13,1000 to 10000,"CC(=O)NCC1CN(c2ccc(C(F)(F)F)cc2)c2ccc(C#N)nc2O1 (single isomer, unassigned) [99-En1 or 99-En2, (R)- or (S)—N-((6-cyano-1-(4-(trifluoromethyl)phenyl)-2,3-dihydro-1H-pyrido[2,3-b][1,4]oxazin-3-yl)methyl)acetamide]"
14,< 1000,"CC(=O)N[C@@H]1C[C@@H]2CN(c3ccc(C(F)(F)F)cc3)c3cc(Cl)cnc3N2C1 [compound 98, N-((6aR,8R)-3-chloro-5-(4-(trifluoromethyl)phenyl)-5,6,6a,7,8,9-hexahydropyrido[3,2-e]pyrrolo[1,2-a]pyrazin-8-yl)acetamide]"
15,< 1000,"C=CC(=O)NCC1CN(c2ccc(C(F)(F)F)cc2)c2ccccc2N1S(C)(=O)=O (centres unmarked) [compound 23, N-((1-(methylsulfonyl)-4-(4-(trifluoromethyl)phenyl)-1,2,3,4-tetrahydroquinoxalin-2-yl)methyl)acrylamide]"

# The remaining lines, values behind:
row,Structure (SMILES),IC50 [nM]
1,"Cc1ccc(Nc2ccc(C(F)(F)F)cc2)c(N2CCC(C(=O)O)CC2)n1 [compound 125, 1-(6-methyl-3-((4-(trifluoromethyl)phenyl)amino)pyridin-2-yl)piperidine-4-carboxylic acid]",< 1000
2,"C=CC(=O)NCC1CN(c2ccc(C(F)(F)F)cc2)c2ccccc2N1CCC(=O)O (centres unmarked) [compound 7, 3-(2-(acrylamidomethyl)-4-(4-(trifluoromethyl)phenyl)-3,4-dihydroquinoxalin-1(2H)-yl)propanoic acid]",> 10000
3,"CN(c1ccc(C(F)(F)F)cc1)c1ccccc1N1CCC(C(=O)O)CC1 [compound 118, 1-(2-(methyl(4-(trifluoromethyl)phenyl)amino)phenyl)piperidine-4-carboxylic acid]",1000 to 10000
4,"CC(=O)N1CCN2c3ncccc3N(c3ccc(C(F)(F)F)nc3)CC2C1 (centres unmarked) [compound 54, 1-(5-(6-(trifluoromethyl)pyridin-3-yl)-5,6,6a,7,9,10-hexahydro-8H-pyrazino[1,2-a]pyrido[3,2-e]pyrazin-8-yl)ethan-1-one]",1000 to 10000
5,"FC(F)(F)c1ccc(N2CCN(Cc3ccno3)c3ccccc32)cc1 [compound 69, 5-((4-(4-(trifluoromethyl)phenyl)-3,4-dihydroquinoxalin-1(2H)-yl)methyl)isoxazole]",> 10000
6,"C=CC(=O)NCC1CN(c2ccc(C(F)(F)F)cc2)c2ccccc2N1CC(N)=O (centres unmarked) [compound 11, N-((1-(2-amino-2-oxoethyl)-4-(4-(trifluoromethyl)phenyl)-1,2,3,4-tetrahydroquinoxalin-2-yl)methyl)acrylamide]",< 1000
7,"O=C(O)C1CCN(c2ccccc2Nc2ccc(C(F)(F)F)cc2)CC1 [compound 111, 1-(2-((4-(trifluoromethyl)phenyl)amino)phenyl)piperidine-4-carboxylic acid]",< 1000
8,"C=CC(=O)N1CCN2CC(=O)N(c3ccc(C(F)(F)F)cc3)CC2C1 (centres unmarked) [compound 33, 8-acryloyl-2-(4-(trifluoromethyl)phenyl)-hexahydro-2H-pyrazino[1,2-a]pyrazin-3(4H)-one]",< 1000
9,"O=C(O)C1CCN(c2ncccc2Nc2ccc(C(F)(F)F)cc2)CC1 [compound 124, 1-(3-((4-(trifluoromethyl)phenyl)amino)pyridin-2-yl)piperidine-4-carboxylic acid]",< 1000

# Reference: US20240409556A1, “BENZOPIPERAZINE AND RELATED ANALOGS FOR INHIBITING YAP/TAZ-TEAD” (Springworks Therapeutics, Inc., priority 2023, published 2024)
